Patent US11034671B2, “Apoptosis signal-regulating kinase inhibitors and uses thereof” (SICHUAN HAISCO PHARMACEUTICAL CO., LTD., priority 2017, dated 2021)
pIC50, pKd: −log10 of the molar value.

Columns and labels:
[1] = target: ASK1 (Homo sapiens (Human), UniProt Q99683); assay: ASK1 KINOMEscan assay (biochemical Kd), competition binding; conditions: DNA-tagged ASK1 kinase, 11-point 3-fold dilution
Method: The binding of compounds to ASK1 were determined using DiscoverX's proprietary technology. […] The assay is performed by combining three components: DNA-tagged ASK1 kinase; immobilized ligand; and a test compound. The ability of the test compound to compete with the immobilized ligand is measured via quantitative PCR of the DNA tag. […] The liganded beads were blocked with excess biotin and washed with blocking buffer (SeaBlock (Pierce), 1% BSA, 0.05% Tween 20, 1 mM DTT) to remove unbound ligand and to reduce nonspecific binding. […] Kds were determined using an 11-point 3-fold compound dilution series with three DMSO control points. […] The compounds were then diluted directly into the assays such that the final concentration of DMSO was 0.9%. All reactions were performed in polypropylene 384-well plate. […] The kinase concentration in the eluates was measured by qPCR. Most Kds were determined using a compound top concentration=30,000 nM. […] Binding constants (Kds) were calculated with a standard dose-response curve using the Hill equation: Response=Background+{(Signal−Background)/[1+(Kd^Hill Slope/Dose^Hill Slope)]}, the Hill Slope was set to −1, and curves were fitted using a non-linear least square fit with the Levenberg-Marquardt algorithm.

[2] = tested on: phospho-p38 (downstream target of ASK1 activation) in HK-2 cells; assay: HK-2 phospho-p38 HTRF assay (cellular IC50); type: cell-based; conditions: Homo sapiens, compound 2 h then 1 mM H2O2 30 min, phospho-T180/Y182 p38 HTRF, read-out: p38 MAPK IC50
Method: Monolayers of HK-2 cells were grown on 384-well plates at 8000 cells/well and incubated at 37° C. with 5% CO2/95% air in keratinocyte serum-free medium (Thermofisher, Carlsbad, Calif.) supplemented with recombinant human EGF (5 ng/mL) and bovine pituitary extract (50 μg/mL). 24 hours after seeding, cells were treated with test compounds for various concentrations for 2 hours and followed by 30 min treatment of H2O2 with final concentration of 1 mM. At the end of cell treatment, the cell medium was removed, and the cells were washed once with ice-cold PBS and subjected to measure the level of phosphor-p38 (downstream target of ASK1 activation) using Cisbio's P38 phospho-T180/Y182 HTRF kit from Cisbio (Cat. 64P38PEG). […] The compounds were then diluted directly into the assays such that the final concentration of DMSO was 0.4%. […] IC50 were calculated with a log (dose)-response curve using four parameter variable nonlinear fitting, with log(dose) in X-axis and (Em665/Em620×10000) ratio as Y-axis.

Chain of ASK1 (Q99683 whole entry): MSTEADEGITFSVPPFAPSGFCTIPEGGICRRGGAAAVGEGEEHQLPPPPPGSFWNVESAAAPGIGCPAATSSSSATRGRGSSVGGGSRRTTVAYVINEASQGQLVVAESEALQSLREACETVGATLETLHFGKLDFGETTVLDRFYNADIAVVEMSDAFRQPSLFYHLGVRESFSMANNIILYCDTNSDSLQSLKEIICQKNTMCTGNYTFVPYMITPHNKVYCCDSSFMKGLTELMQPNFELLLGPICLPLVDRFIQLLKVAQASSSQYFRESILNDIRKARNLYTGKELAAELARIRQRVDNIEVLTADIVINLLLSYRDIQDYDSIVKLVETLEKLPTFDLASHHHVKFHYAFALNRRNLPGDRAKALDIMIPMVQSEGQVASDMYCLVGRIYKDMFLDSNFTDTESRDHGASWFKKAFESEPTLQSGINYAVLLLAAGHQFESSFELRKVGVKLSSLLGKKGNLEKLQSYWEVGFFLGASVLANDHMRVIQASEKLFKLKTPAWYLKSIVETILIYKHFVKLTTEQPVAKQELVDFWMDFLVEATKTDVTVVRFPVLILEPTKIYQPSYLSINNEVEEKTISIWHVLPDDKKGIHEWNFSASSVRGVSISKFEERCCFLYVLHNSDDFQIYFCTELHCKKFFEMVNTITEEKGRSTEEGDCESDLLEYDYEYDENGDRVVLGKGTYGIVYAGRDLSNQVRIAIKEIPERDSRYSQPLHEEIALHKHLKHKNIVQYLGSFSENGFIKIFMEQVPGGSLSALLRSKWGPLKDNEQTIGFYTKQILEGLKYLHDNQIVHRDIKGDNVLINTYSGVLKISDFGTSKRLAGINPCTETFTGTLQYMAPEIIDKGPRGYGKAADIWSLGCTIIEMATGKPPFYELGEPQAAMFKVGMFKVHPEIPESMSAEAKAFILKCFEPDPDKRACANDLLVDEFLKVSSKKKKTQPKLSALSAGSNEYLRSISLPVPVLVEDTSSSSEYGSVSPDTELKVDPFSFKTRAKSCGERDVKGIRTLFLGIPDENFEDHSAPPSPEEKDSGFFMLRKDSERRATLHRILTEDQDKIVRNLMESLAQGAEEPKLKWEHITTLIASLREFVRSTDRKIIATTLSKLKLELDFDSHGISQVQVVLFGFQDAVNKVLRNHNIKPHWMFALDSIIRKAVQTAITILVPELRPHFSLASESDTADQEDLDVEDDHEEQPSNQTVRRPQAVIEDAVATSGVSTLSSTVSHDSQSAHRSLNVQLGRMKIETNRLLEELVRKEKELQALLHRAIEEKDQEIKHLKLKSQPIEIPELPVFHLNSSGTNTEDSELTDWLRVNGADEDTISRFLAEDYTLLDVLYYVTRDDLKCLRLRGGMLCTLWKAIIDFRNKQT

O=C1Nc2cccc(n2)-c2nncn2CCCCCOc2ccc(-c3ccc(C4CC4)nc3)cc21 [Example 19]
pKd [1]: 7.00 to 8.00 | pIC50 [2]: 6.00 to 7.00

O=C1Nc2cccc(n2)-c2nncn2CCCCOc2ccc(-n3cnc(C4CC4)c3)cc21 [Example 22]
pKd [1]: > 8.00 | pIC50 [2]: > 7.00

O=C1Nc2cccc(n2)-c2nncn2CCCCOc2ccc(-c3ccc(C4CC4)nc3)cc21 [Example 23]
pKd [1]: > 8.00 | pIC50 [2]: 6.00 to 7.00

Cc1ccc(-c2ccc3c(c2)C(=O)Nc2cccc(n2)-c2nncn2CCCCO3)cn1 [Example 24]
pKd [1]: > 8.00 | pIC50 [2]: > 7.00

CC1(C)Cc2cc3c(cc2O1)C(=O)Nc1cccc(n1)-c1nncn1CCCCO3 [Example 30]
pKd [1]: > 8.00 | pIC50 [2]: > 7.00

O=C1Nc2cccc(n2)-c2nncn2CCCOc2ccc(-c3ccc(C4CC4)nc3)cc21 [Example 37]
pKd [1]: > 8.00 | pIC50 [2]: > 7.00

O=C1Nc2cccc(n2)-c2nncn2CCCCOc2ccc(-c3ccccc3)cc21 [Example 38]
pKd [1]: > 8.00 | pIC50 [2]: > 7.00

O=C1Nc2cccc(n2)-c2nncn2CCCCOc2ccc(-c3ccc(F)nc3)cc21 [Example 39]
pKd [1]: > 8.00 | pIC50 [2]: > 7.00

O=C1Nc2cccc(n2)-c2nncn2CCCCOc2ccc(-c3ccc(C(F)(F)F)nc3)cc21 [Example 40]
pKd [1]: > 8.00 | pIC50 [2]: > 7.00

O=C1Nc2cccc(n2)-c2nncn2CCCCOc2ccc(-c3ccsc3)cc21 [Example 42]
pKd [1]: > 8.00 | pIC50 [2]: 6.00 to 7.00

O=C1Nc2cccc(n2)-c2nncn2CCCCOc2ccc(N3CCOCC3)cc21 [Example 43]
pIC50 [2]: > 7.00

O=C1Nc2cccc(n2)-c2nncn2CCCCOc2ccc(C3CC3)cc21 [Example 46]
pKd [1]: > 8.00 | pIC50 [2]: 6.00 to 7.00

CCc1ccc(-c2ccc3c(c2)C(=O)Nc2cccc(n2)-c2nncn2CCCCO3)cn1 [Example 47]
pKd [1]: > 8.00 | pIC50 [2]: > 7.00

Cn1cc(-c2ccc3c(c2)C(=O)Nc2cccc(n2)-c2nncn2CCCCO3)cn1 [Example 48]
pIC50 [2]: > 7.00

CC1CCCOc2ccc(-c3ccc(C4CC4)nc3)cc2C(=O)Nc2cccc(n2)-c2nncn21 (stereo not shown) [Example 50]
pKd [1]: > 8.00 | pIC50 [2]: > 7.00

O=C1Nc2cccc(n2)-c2nncn2CCCCOc2ccc(-c3ccc(C(F)F)nc3)cc21 [Example 52]
pKd [1]: > 8.00 | pIC50 [2]: > 7.00

O=C1Nc2cccc(n2)-c2nncn2CCCCOc2ccc(-c3ccc(Cl)nc3)cc21 [Example 54]
pKd [1]: > 8.00 | pIC50 [2]: > 7.00

Cc1ccc(-c2ccc3c(c2)C(=O)Nc2cccc(n2)-c2nncn2C(C)CCCO3)cn1 (stereo not shown) [Example 56]
pKd [1]: > 8.00 | pIC50 [2]: > 7.00

Cc1cc2c(cc1-n1cnc(C3CC3)c1)C(=O)Nc1cccc(n1)-c1nncn1CCCCO2 [Example 61]
pKd [1]: > 8.00 | pIC50 [2]: > 7.00

N#Cc1ccc(-c2ccc3c(c2)C(=O)Nc2cccc(n2)-c2nncn2CCCCO3)cn1 [Example 63]
pKd [1]: > 8.00 | pIC50 [2]: 6.00 to 7.00

O=C1Nc2cccc(n2)-c2nncn2CCCOc2ccc(-n3cnc(C4CC4)c3)cc21 [Example 66]
pKd [1]: > 8.00 | pIC50 [2]: 6.00 to 7.00

Cc1ccc(-c2ccc3c(c2)C(=O)Nc2cccc(n2)-c2nncn2C(C)CCO3)cn1 (stereo not shown) [Example 67]
pKd [1]: > 8.00 | pIC50 [2]: > 7.00

Cc1ccc(-c2ccc3c(c2)C(=O)Nc2cccc(n2)-c2nncn2C2CC(CO3)C2)cn1 [Example 69]
pIC50 [2]: > 7.00

Cc1ccc(-c2ccc3c(c2)C(=O)Nc2cccc(n2)-c2nncn2CCCOC3)cn1 [Example 70]
pKd [1]: > 8.00 | pIC50 [2]: > 7.00

Cc1ccc(-c2ccc3c(c2)C(=O)Nc2cccc(n2)-c2nncn2C2CCC(CC2)O3)cn1 [Example 71]
pIC50 [2]: > 7.00
